From paper PMC4240550 (PLoS ONE, 2014)
Values joined by “and” are separate entries in the source; they are usually repeats but may differ in a detail not shown here. Equal values may be shown once. Read-outs that look alike come from different tables or passages of the source.

What was measured:
LecB [1] = target: T1, LecB (Pseudomonas aeruginosa, UniProt Q9HYN5); conditions: for N: ITC stoichiometry; for difference in Kd / binding affinity from the equatorial methyl group: microcalorimetry, vs analog lacking the methyl group (4 vs 5; 3 vs 7)
T1 sequence (Q9HYN5 entry or part of it): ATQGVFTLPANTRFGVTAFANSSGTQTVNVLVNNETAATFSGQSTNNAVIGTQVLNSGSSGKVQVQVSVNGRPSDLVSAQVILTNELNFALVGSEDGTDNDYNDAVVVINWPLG

LecB [2] = target: T1, LecB; conditions: ITC; cited from earlier work
LecB [3] = target: T1, LecB; experiment: biochemical
LecB [4] = target: T1, LecB; experiment: biochemical; assay type: binding; conditions: IC50, fluorescence polarization, TBS/Ca pH 7.4; mean ± SD of minimum three independent measurements of triplicates
[5] = validation titration of LecB (56.1 µM) with 1 (700 µM)
[6] = 25°C, mean ± SD of minimum three titrations (5: indirect titration with 3, two titrations)
[7] = mean ± SD of minimum three titrations (5: indirect titration with 3, two titrations)

Compound | difference in Gibbs energy (LecB [1]; methyl α-L-fucoside (1) compared with 1-deoxy L-fucose (3)) | ΔG (LecB [1]; [5]) | ΔH (LecB [1]; [5]) | -TΔS (LecB [2]) | ΔH (LecB [2]) | Kd (LecB [3]) | IC50 (LecB [4]) | -TΔS (LecB [1]; [6]) | ΔG (LecB [1]; [6]) | ΔH (LecB [1]; [6]) | N (LecB [1]; [7]) | difference in Kd / binding affinity from the equatorial methyl group (LecB [1]) | Kd (LecB [2]) | ΔG (LecB [2])
CO[C@@H]1O[C@@H](C)[C@@H](O)[C@@H](O)[C@@H]1O [compound 1, methyl α-L-fucoside, reference compound] | -0.359 kcal/mol | -8.525 kcal/mol | -9.257 kcal/mol | 1.17 kcal/mol | -9.87 kcal/mol | – | – | – | – | – | – | – | – | –
CO[C@H]1O[C@H](CO)[C@@H](O)[C@H](O)[C@@H]1O [compound 2, methyl α-D-mannoside] | – | – | – | -1.41 kcal/mol | -4.25 kcal/mol | – | – | – | – | – | – | – | – | –
CC1OCC(O)C(O)C1O [compound 3, 1-deoxy L-fucose] | – | – | – | – | – | 0.77 ± 0.1 µM | 1.6 ± 0.7 µM | 0.327 ± 0.263 kcal/mol | -8.34 ± 0.072 kcal/mol | -8.68 ± 0.22 kcal/mol | 1.07 ± 0.03 | 4- to 6 fold | – | –
C[C@@H]1O[C@H](CO)[C@@H](O)[C@H](O)[C@@H]1O [compound 4, β-L-fucopyranosyl methanol] | – | – | – | – | – | 16.1 µM | 23 µM and 22.9 µM | -0.588 ± 0.335 kcal/mol | -6.57 ± 0.239 kcal/mol | -5.98 ± 0.382 kcal/mol | 0.86 ± 0.1 | 4- to 6 fold | – | –
OC[C@H]1OC[C@@H](O)[C@@H](O)[C@@H]1O [compound 5, 1-deoxy D-mannose] | – | – | – | – | – | 69.1 ± 25 µM | 104 µM | -1.41 ± 0.382 kcal/mol | -5.69 ± 0.22 kcal/mol | -4.28 ± 0.14 kcal/mol | 0.87 ± 0.18 | – | – | –
C[C@@H]1O[C@H](C)[C@@H](O)[C@H](O)[C@@H]1O [compound 6, β-L-fucopyranosyl methane] | – | – | – | – | – | 16.9 ± 1.9 µM | 21 µM and 20.6 µM | -0.308 ± 0.43 kcal/mol | -6.5 ± 0.072 kcal/mol | -6.19 ± 0.382 kcal/mol | 0.86 ± 0.2 | – | – | –
OC1[C@H](O)COC[C@H]1O [compound 7, 1-deoxy D-arabinose] | – | – | – | – | – | 4.46 ± 0.7 µM | 9.7 µM and 9.65 µM | 1.14 ± 0.574 kcal/mol | -7.29 ± 0.072 kcal/mol | -8.44 ± 0.574 kcal/mol | 0.81 ± 0.1 | – | – | –
CO[C@@H]1OC[C@@H](O)[C@@H](O)[C@@H]1O [compound 13, methyl β-D-arabinoside] | – | – | – | 1.29 kcal/mol | -9.06 kcal/mol | – | 3.4 µM | – | – | – | – | – | 1.7 µM | -7.89 kcal/mol
